Laboratory results reported in patent US12624017B2, “Salt form of isoquinolinone type compound as rock inhibitor and preparation method therefor” (GUANGZHOU OCUSUN OPHTHALMIC BIOTECHNOLOGY CO., LTD., priority 2020, dated 2026).

System: New Zealand rabbits with normal intraocular pressure
Assay: Intraocular pressure reduction, normal intraocular pressure, eye drops in both eyes for 14 days (Operation I)
Assay type: in vivo, New Zealand white rabbits
Details: for Change in intraocular pressure: vs negative control
Source text: An intraocular pressure reduction effect and potential ocular toxicity of the compound of formula (I) were inspected with rabbits with normal intraocular pressure by repeated administration of eye drops for 14 days.
Male New Zealand white rabbits, aged 97 to 127 days, weighted 2.6-3.5 kg, purchased from Pizhou Oriental Breeding Co., Ltd.
The Male New Zealand white rabbits were randomly divided into 7 groups according to body weights, 6 rabbits/group. The animals in Groups 1 to 7 were administrated dropwise with a solvent/control/test article in both eyes in an administration volume of 50 μL/eye, once a day for 14 consecutive days, and the day of first administration was recorded as Day 1. The intraocular pressures of the animals were measured before administration, as well as at 1, 2, 4, 6, 8 and 10 h after administration, respectively. On Days 2 to 14, the intraocular pressures of animals in the K-115 administration group were measured at 1 h after daily administration; and intraocular pressures of the animals in the remaining groups were measured at 4 h after daily administration.

[1] = 2.0 mg/mL, Day 1, 1 h after administration
[2] = 2.0 mg/mL, Day 1, 2 h after administration
[3] = 2.0 mg/mL, Day 1, 4 h after administration
[4] = 2.0 mg/mL, Day 1, 6 h after administration
[5] = 2.0 mg/mL, Day 1, 8 h after administration
[6] = 2.0 mg/mL, Day 1, 10 h after administration
[7] = 2.0 mg/mL, Day 1, before administration
[8] = 4.0 mg/mL once a day, Day 2, 4 h after daily administration
[9] = 4.0 mg/mL once a day, Day 3, 4 h after daily administration
[10] = 4.0 mg/mL once a day, Day 4, 4 h after daily administration
[11] = 4.0 mg/mL once a day, Day 5, 4 h after daily administration
[12] = 4.0 mg/mL once a day, Day 6, 4 h after daily administration
[13] = 4.0 mg/mL once a day, Day 7, 4 h after daily administration
[14] = 4.0 mg/mL, Day 1, 1 h after administration
[15] = 4.0 mg/mL, Day 1, 2 h after administration
[16] = 4.0 mg/mL, Day 1, 4 h after administration
[17] = 4.0 mg/mL, Day 1, 6 h after administration
[18] = 4.0 mg/mL, Day 1, 8 h after administration
[19] = 4.0 mg/mL, Day 1, 10 h after administration
[20] = 4.0 mg/mL, Day 1, before administration
[21] = 8.0 mg/mL once a day, Day 2, 4 h after daily administration
[22] = 8.0 mg/mL once a day, Day 3, 4 h after daily administration
[23] = 8.0 mg/mL once a day, Day 4, 4 h after daily administration
[24] = 8.0 mg/mL once a day, Day 5, 4 h after daily administration
[25] = 8.0 mg/mL once a day, Day 6, 4 h after daily administration
[26] = 8.0 mg/mL once a day, Day 7, 4 h after daily administration
[27] = 8.0 mg/mL, Day 1, 1 h after administration
[28] = 8.0 mg/mL, Day 1, 2 h after administration
[29] = 8.0 mg/mL, Day 1, 4 h after administration
[30] = 8.0 mg/mL, Day 1, 6 h after administration
[31] = 8.0 mg/mL, Day 1, 8 h after administration
[32] = 8.0 mg/mL, Day 1, 10 h after administration
[33] = 8.0 mg/mL, Day 1, before administration

Q: What does the source list for `Cc1ccc(C(=O)OCn2cc(C)c3c(S(=O)(=O)N4CC[C@H](N)C4)cccc3c2=O)c(C)c1` [Compound of formula (I)]?
A: Change in intraocular pressure (2.0 mg/mL once a day, Day 13, 4 h after daily administration): 4.28 mmHg; Change in intraocular pressure (2.0 mg/mL once a day, Day 14, 4 h after daily administration): 3.91 mmHg; Average intraocular pressure in both eyes [1]: 8.56 mmHg; Change in intraocular pressure [1]: 1.75 mmHg; Average intraocular pressure in both eyes [2]: 7.47 mmHg; Change in intraocular pressure [2]: 3.5 mmHg; Average intraocular pressure in both eyes [3]: 7.47 mmHg; Change in intraocular pressure [3]: 3.84 mmHg; Average intraocular pressure in both eyes [4]: 7.25 mmHg; Change in intraocular pressure [4]: 4.69 mmHg; Average intraocular pressure in both eyes [5]: 8.44 mmHg; Change in intraocular pressure [5]: 4.53 mmHg; Average intraocular pressure in both eyes [6]: 9.67 mmHg; Change in intraocular pressure [6]: 4.75 mmHg; Average intraocular pressure in both eyes [7]: 9.67 mmHg; Change in intraocular pressure [7]: 0.22 mmHg; Average intraocular pressure in both eyes [8]: 6.53 mmHg; Change in intraocular pressure [8]: 4.55 mmHg; Average intraocular pressure in both eyes [9]: 5.58 mmHg; Change in intraocular pressure [9]: 4.81 mmHg; Average intraocular pressure in both eyes [10]: 5.53 mmHg; Change in intraocular pressure [10]: 5.08 mmHg; Average intraocular pressure in both eyes [11]: 6.61 mmHg; Change in intraocular pressure [11]: 4.36 mmHg; Average intraocular pressure in both eyes [12]: 5.47 mmHg; Change in intraocular pressure [12]: 3.84 mmHg; Average intraocular pressure in both eyes [13]: 5.56 mmHg; Change in intraocular pressure [13]: 4.5 mmHg; Change in intraocular pressure (4.0 mg/mL once a day, Day 8, 4 h after daily administration): 4.53 mmHg; Change in intraocular pressure (4.0 mg/mL once a day, Day 9, 4 h after daily administration): 3.97 mmHg; Change in intraocular pressure (4.0 mg/mL once a day, Day 10, 4 h after daily administration): 4.67 mmHg; Change in intraocular pressure (4.0 mg/mL once a day, Day 11, 4 h after daily administration): 3.86 mmHg; Change in intraocular pressure (4.0 mg/mL once a day, Day 12, 4 h after daily administration): 3.64 mmHg; Change in intraocular pressure (4.0 mg/mL once a day, Day 13, 4 h after daily administration): 4.36 mmHg; Change in intraocular pressure (4.0 mg/mL once a day, Day 14, 4 h after daily administration): 4.64 mmHg; Average intraocular pressure in both eyes [14]: 10.44 mmHg; Change in intraocular pressure [14]: −0.13 mmHg; Average intraocular pressure in both eyes [15]: 7.81 mmHg; Change in intraocular pressure [15]: 3.16 mmHg; Average intraocular pressure in both eyes [16]: 6.47 mmHg; Change in intraocular pressure [16]: 4.84 mmHg; Average intraocular pressure in both eyes [17]: 6.22 mmHg; Change in intraocular pressure [17]: 5.72 mmHg; Average intraocular pressure in both eyes [18]: 7.33 mmHg; Change in intraocular pressure [18]: 5.64 mmHg; Average intraocular pressure in both eyes [19]: 8.64 mmHg; Change in intraocular pressure [19]: 5.78 mmHg; Average intraocular pressure in both eyes [20]: 9.67 mmHg; Change in intraocular pressure [20]: 0.22 mmHg; Average intraocular pressure in both eyes [21]: 6.33 mmHg; Change in intraocular pressure [21]: 4.75 mmHg; Average intraocular pressure in both eyes [22]: 5.78 mmHg; Change in intraocular pressure [22]: 4.61 mmHg; Average intraocular pressure in both eyes [23]: 5.97 mmHg; Change in intraocular pressure [23]: 4.64 mmHg; Average intraocular pressure in both eyes [24]: 6.42 mmHg; Change in intraocular pressure [24]: 4.55 mmHg; Average intraocular pressure in both eyes [25]: 5.56 mmHg; Change in intraocular pressure [25]: 3.75 mmHg; Average intraocular pressure in both eyes [26]: 5.28 mmHg; Change in intraocular pressure [26]: 4.78 mmHg; Change in intraocular pressure (8.0 mg/mL once a day, Day 8, 4 h after daily administration): 5.59 mmHg; Change in intraocular pressure (8.0 mg/mL once a day, Day 9, 4 h after daily administration): 4.25 mmHg; Change in intraocular pressure (8.0 mg/mL once a day, Day 10, 4 h after daily administration): 4.19 mmHg; Change in intraocular pressure (8.0 mg/mL once a day, Day 11, 4 h after daily administration): 4.16 mmHg; Change in intraocular pressure (8.0 mg/mL once a day, Day 12, 4 h after daily administration): 3.97 mmHg; Change in intraocular pressure (8.0 mg/mL once a day, Day 13, 4 h after daily administration): 4.72 mmHg; Change in intraocular pressure (8.0 mg/mL once a day, Day 14, 4 h after daily administration): 4.03 mmHg; Average intraocular pressure in both eyes [27]: 7.69 mmHg; Change in intraocular pressure [27]: 2.62 mmHg; Average intraocular pressure in both eyes [28]: 6.39 mmHg; Change in intraocular pressure [28]: 4.58 mmHg; Average intraocular pressure in both eyes [29]: 7.06 mmHg; Change in intraocular pressure [29]: 4.25 mmHg; Average intraocular pressure in both eyes [30]: 7.11 mmHg; Change in intraocular pressure [30]: 4.83 mmHg; Average intraocular pressure in both eyes [31]: 7.22 mmHg; Change in intraocular pressure [31]: 5.75 mmHg; Average intraocular pressure in both eyes [32]: 7.97 mmHg; Change in intraocular pressure [32]: 6.45 mmHg; Average intraocular pressure in both eyes [33]: 10.17 mmHg; Change in intraocular pressure [33]: −0.28 mmHg; Efficacy of single administration (conclusion) (all tested doses (0.5 to 8.0 mg/mL), compared with K-115): better efficacy; Intraocular pressure reduction effect on 14 days of consecutive administration (conclusion) (dose of 0.5 mg/mL, compared with K-115): significant intraocular pressure reduction effect
